Earlier results as cited in article PMC8160438, “A Novel Heptapeptide, GPPGPAG Transfers to the Brain, and Ameliorates Memory Dysfunction and Dendritic Atrophy in Alzheimer’s Disease Model Mice” (Frontiers in Pharmacology, 2021).

Details: in vivo, cited from earlier work
Experimental: In Figure 6H, the mean value of GPPGPAG in the cerebral cortex is 2.748 μg/g of tissue at 180 min after p.o. administration of 500 mg/mouse. When 10 mg/kg GPPGPAG is applied per orally, the transferred amount of GPPGPAG in the brain is calculated as 0.598 pmol. […] Identification of the BBB transporting system for GPPGPAG should be done in future.

| Substance | transport into brain | crossing of the blood-brain barrier (po) |
| --- | --- | --- |
| Gly-Pro | transported into brain | – |
| RPRTRLHTHRNR-NH2 [12-amino acid peptide that crosses the blood-brain barrier] | – | crosses the blood-brain barrier (BBB) without digestion |
| Tyr-Pro | transported into brain | – |
